Laboratory results published in publication PMC4608580, “Synthesis and Evaluation of Biological Activity of Antimicrobial – Pro-Proliferative Peptide Conjugates” (PLoS ONE, 2015).
Read-outs that look alike come from different tables or passages of the source. No end group written: not given here.

How the values were obtained:
B. cereus = format: cell-based; conditions: 24 h
Procedure: (§1) Luria-Bertani broth (LB) and Sabouraud Dextrose broth (SB) (Biocorp, Poland) were used for cultivation of bacteria and fungi strains, respectively. Antimicrobial activity of peptides was analyzed through determination of MIC (minimal inhibitory concentration) parameter according to the standard microdilution technique performed on 96-well plates. Mueller-Hinton broth (MHB) was used as the working medium for all bacterial strains, while in case of fungi it was additionally supplemented with 2% glucose.
(§2) Briefly, inoculum was prepared from freshly grown cultures of microorganisms being at their exponential phase of growth. Each well of 96-well plates containing 100 μL of serially diluted peptides in PBS (phosphate buffer saline) at concentration ranging from 2 to 250 μg/mL were inoculated with 100 μL of approximately 10^5 CFU/mL of bacterial suspension or about 2.5 x 10^3 CFU/mL of fungi suspended in a double concentrated Mueller-Hinton broth (supplemented with 2% glucose for Candida spps.). Then plates were incubated overnight at 37°C and absorbance was read at 590 nm after 24 h. Cultures without peptide were treated as positive control, while uninoculated Mueller-Hinton broth was defined as negative control. All measurements were run at least in triplicate.
(§3) All peptides were screened against the wide range of microorganisms, including Gram-negative, Gram-positive bacteria and fungi from Candida species (Table 2). Broth microdilution method for MIC determination was used as a standard procedure. All assays were performed on liquid Mueller-Hinton broth, which was additionally supplemented with 2% glucose when fungicidal activity towards Candida spps. was analyzed.

B. subtilis = format: cell-based; conditions: 24 h
Procedure: as §1, §2, §3

[1] = tested on: Candida albicans (CCM 8186); format: cell-based; conditions: broth microdilution, Mueller-Hinton broth + 2% glucose, about 2.5 x 10^3 CFU/mL, 37°C, 24 h, absorbance 590 nm, peptide 2 to 250 μg/mL, at least triplicate
From the text: (§4) Escherichia coli (PCM 2057), Staphylococcus aureus (PCM 2054), Staphylococcus epidermidis (PCM 2118), Pseudomonas aeruginosa (PCM 499) were obtained from Polish Collection of Microorganisms. Fungi strains Candida albicans (CCM 8186), Candida glabrata (CCM 8270), Candida parapsilosis (CCM 8260), Candida krusei (CCM 8271), Candida tropicalis (CCM 8264) were acquired from Czech Collection of Microorganisms.
as §1, §2, §3

[2] = tested on: Pseudomonas aeruginosa (PCM 499); format: cell-based
From the text: as §4, §1, §2, §3

[3] = tested on: Candida tropicalis (CCM 8264); format: cell-based; conditions: broth microdilution, Mueller-Hinton broth + 2% glucose, about 2.5 x 10^3 CFU/mL, 37°C, 24 h, absorbance 590 nm, at least triplicate
From the text: as §4, §1, §2, §3

[4] = tested on: Escherichia coli (PCM 2057); format: cell-based
From the text: as §4, §1, §2, §3

[5] = tested on: Candida glabrata (CCM 8270); format: cell-based; conditions: broth microdilution, Mueller-Hinton broth + 2% glucose, about 2.5 x 10^3 CFU/mL, 37°C, 24 h, absorbance 590 nm, at least triplicate
From the text: as §4, §1, §2, §3

[6] = tested on: Candida parapsilosis (CCM 8260); format: cell-based; conditions: broth microdilution, Mueller-Hinton broth + 2% glucose, about 2.5 x 10^3 CFU/mL, 37°C, 24 h, absorbance 590 nm, at least triplicate
From the text: as §4, §1, §2, §3

[7] = tested on: Staphylococcus epidermidis (PCM 2118); format: cell-based
From the text: as §4, §1, §2, §3

[8] = tested on: Staphylococcus aureus (PCM 2054); format: cell-based
From the text: as §4, §1, §2, §3

[9] = tested on: Candida krusei (CCM 8271); format: cell-based; conditions: broth microdilution, Mueller-Hinton broth + 2% glucose, about 2.5 x 10^3 CFU/mL, 37°C, 24 h, absorbance 590 nm, at least triplicate
From the text: as §4, §1, §2, §3

[10] = Circular dichroism, alpha-helical content; format: physicochemical; conditions: CD, mean residue ellipticity at 222 nm (Eq 1), peptide 0.4 mg/ml in 30 mM SDS, room temperature
Procedure: Circullar dichroism spectra of analyzed compounds were recorded on a Jasco J-815 spectropolarimeter using a quartz cell of 1 mm path length between 195–260 nm at room temperature. Peptides at concentration of 0.4 mg/ml were dissolved in water or 30 mM SDS solution. SDS micelle system was used as the simplified model of negatively charged lipid membrane. On the basis of the obtained results the alpha-helical content was determined from the mean residue ellipticities at 222 nm according to Eq 1: %Helix=([θ]obs/([θ]helixx(1−2.57/l))x100, (1) where [θ] obs is the experimentally observed mean-residue ellipticity at 222 nm, [θ]helix is the theoretical ellipticity of peptide of infinite length with a 100% helix population, taken as -39 500 deg·cm^2/dmol, and l is the number of peptide bonds.
Circular dichroism method was applied to obtain a basic information about the secondary structure of the synthesized compounds (with the exception of CAR, CAR3, DAL, CTEN2) in two chemical environments, water and 30 mM SDS. As expected, all the tested compounds in water adopted a random-coil structure, while in the presence of 30 mM SDS most of them formed α-helices with characteristic negative minima around 208 and 220 nm. […] The examples of CD spectra for selected peptides could be seen in supporting information (Figure A in S1 File). On the basis of the experimentally obtained values of the mean residue ellipticities of peptides at 222 nm their alpha-helical content was calculated according to the Eq 1 (Table 1).

[11] = tested on: immortalized human HaCaT keratinocytes; assay: Cell proliferation assay (MTT); format: cell-based; conditions: 72 h, serum-free DMEM; for Effect on HaCaT cell viability/proliferation (MTT), in words: whole range 1–50 μg/mL, vs. control without peptide, triplicate; for Effect on HaCaT proliferation (MTT), in words: lower concentrations, 1 or 10 μg/mL
Procedure: In our study two kind of cells were used: immortalized human HaCaT keratinocytes (DKFZ Heidelberg, Germany) and primary dermal fibroblasts obtained from 3 healthy donors. Both types of the used cell lines were grown in Dulbecco's modified Eagle's medium (DMEM) (Sigma–Aldrich, Germany), that contained […] of glucose, […] of L-glutamine, sodium pyruvate and sodium bicarbonate. Additionally, medium was supplemented with 10% of FCS (fetal calf serum, Sigma-Aldrich, Germany), 100 U/mL of penicillin and 100 μg/mL streptomycin (Sigma-Aldrich, Germany). The cells were grown in culture dishes (BD, USA) under standard conditions in a humidified atmosphere with 5% CO2 at 37°C and medium was changed every 2 days.
The fibroblasts and keratinocytes were seeded at density of 4500 and 6000 cells per well, respectively, into 96-well plates suspended in a medium supplemented with 10% of FCS. After 24 h the media were exchanged with serum- and antibiotic- free DMEM and tested peptides dissolved in PBS were added yielding final concentration ranging from 1 to 50 μg/mL. Cells were incubated for the next 24 hours, when the medium was exchanged again and fresh portion of peptides (used at the same concentrations as previously) was added. Incubation was continued for the next 48 hours (the overall time of cell exposition to peptide was 72 h). At the end of the experiment cells were treated with 20 μL of MTT (5 mg/mL in PBS). After 3 h at 37°C under 5% CO2 medium was discarded and replaced by 6mM HCl in isopropanol. After 15 min when the purple crystals of formazan were fully solubilized, absorbance was read at 570 nm with a plate reader. The optical density reflects the level of cell viability as MTT is converted in purple formazan product only in the presence of viable mitochondria of the living cells.
Fig 1 Pro-proliferative activity of the tested peptides towards human keratinocytes (A) and fibroblasts (B). Cells were incubated for 72 hours in serum-free DMEM medium in the presence of peptides applied at concentrations of 1,10, 25 and 50 μg/mL, respectively. The data represents results of MTT assay expressed as the percentage of the cell viability in comparison to their control sample (cells incubated in serum-free DMEM without tested peptides), additional positive control corresponds to the cells incubated in the presence of 10% FCS. All experiments were performed independently in triplicate. *P < 0.05, **P < 0.01, ***P < 0.001 vs. control.
In order to evaluate a long-term effect of peptides, experiments were carried out for 72 hours. Before addition of the tested compounds, the cell medium was exchanged for the fresh one not containing any serum or antibiotic.

[12] = broth microdilution, Mueller-Hinton broth, approximately 10^5 CFU/mL, 37°C, absorbance 590 nm, at least triplicate
[13] = broth microdilution, Mueller-Hinton broth, approximately 10^5 CFU/mL, 37°C, 24 h, absorbance 590 nm, at least triplicate

Substance	MIC B. cereus (B. cereus; [12])	MIC B. subtilis (B. subtilis; [12])	MIC C. albicans [1]	MIC P. aeruginosa [2, 13]	MIC C.tropicalis [3]	MIC E.coli [4, 13]	MIC C.glabrata [5]	MIC C. parapsilosis [6]	MIC S. epidermidis [7, 13]	MIC S.aureus [8, 13]	MIC C.krusei [9]	α-helicity [10]	Effect on HaCaT cell viability/proliferation (MTT), in words [11]	MIC B. cereus (B. cereus)	MIC B. subtilis (B. subtilis)	MIC P. aeruginosa ([2]; PCM 499, 24 h)	MIC E.coli ([4]; PCM 2057, 24 h)	MIC S. epidermidis ([7]; PCM 2118, 24 h)	MIC S.aureus ([8]; PCM 2054, 24 h)	Effect on HaCaT proliferation (MTT), in words [11]
EGLEPG-PEG-IKKILSKIKKLLK-NH2 [CTEN2-PEG-LK6, conjugate of CTEN2 and LK6 joined by PEG-linker]	>125 µg/mL	7.8 µg/mL	125 µg/mL	>125 µg/mL	7.8 µg/mL	>125 µg/mL	>125 µg/mL	125 µg/mL	7.8 µg/mL	>125 µg/mL	15.6 µg/mL	20%	–	–	–	–	–	–	–	–
IKKILSKIKKLL-PEG-YAGFLR [DK5-PEG-DAL, conjugate of DK5 and dalargin joined by PEG-linker (8-amino-3,6-dioxaoctanoic acid)]	>125 µg/mL	7.8 µg/mL	100 µg/mL	>125 µg/mL	7.8 µg/mL	7.8 µg/mL	>125 µg/mL	2.0 µg/mL	7.8 µg/mL	>125 µg/mL	7.8 µg/mL	20%	negative dose-response relationship	–	–	–	–	–	–	–
IKKILSKIKKLLK-NH2 [LK6, reference compound]	–	–	–	–	–	–	–	–	–	–	–	–	–	50 µg/mL	7.8 µg/mL	25 µg/mL	>125 µg/mL	7.8 µg/mL	100 µg/mL	–
KKVVFWVKFK-NH2 [KSLW, reference compound]	–	–	–	–	–	–	–	–	–	–	–	–	–	50 µg/mL	7.8 µg/mL	25 µg/mL	7.8 µg/mL	7.8 µg/mL	25 µg/mL	–
YAGFLR [DAL, dalargin, synthetic Leu-enkephalin analogue, reference compound]	–	–	–	–	–	–	–	–	–	–	–	–	non-toxic	–	–	–	–	–	–	–
ΒAHβAHβAH-PEG-IKKILSKIKKLL-NH2 [CAR3-PEG-DK5, conjugate of CAR3 and DK5 joined by PEG-linker]	>125 µg/mL	15.6 µg/mL	100 µg/mL	50 µg/mL	7.8 µg/mL	>125 µg/mL	125 µg/mL	2.0 µg/mL	7.8 µg/mL	>125 µg/mL	7.8 µg/mL	27%	–	–	–	–	–	–	–	induced cell proliferation
βAH-PEG-IKKILSKIKKLL-NH2 [CAR-PEG-DK5, conjugate of carnosine and DK5 joined by PEG-linker]	100 µg/mL	3.9 µg/mL	15.6 µg/mL	50 µg/mL	<2 µg/mL	100 µg/mL	62.5 µg/mL	31.3 µg/mL	3.9 µg/mL	125 µg/mL	3.9 µg/mL	41%	–	–	–	–	–	–	–	induced cell proliferation
